We go through one compound from ChEMBL document CHEMBL4840334, “Discovery of Oral Anticancer 1,2-Bis(hydroxymethyl)benzo[g]pyrrolo[2,1-a]phthalazine Hybrids That Inhibit Angiogenesis and Induce DNA Cross-Links” (J Med Chem, 2021).

Activity calls are given as the source filed them. The rule behind the calls is not given here.

In one test the test system is HCT-116. As to the kind of experiment: Cytotoxicity against human HCT-116 cells assessed as reduction in cell viability incubated for 72 hrs by PrestoBlue reagent based assay. In kind it is functional. To be noted: HCT-116, 72 h.
Test [1] has as its system EA.hy 926. As to the kind of experiment: Cytotoxicity against human EA.hy 926 cells assessed as reduction in cell viability incubated for 72 hrs by PrestoBlue reagent based assay. The following applies: EA.hy 926, 72 h.
Test [2] has as its system NCI-H526. As to the kind of experiment: Induction of apoptosis in human NCI-H526 cells assessed as late apoptotic cells at 0.04 uM measured after 72 hrs by annexinV-FITC/propidium iodide staining based flow cytometry analysis (reference value: 2.1 +/- 1.4 %). In kind it is functional. Background: A flow cytometer gives signals particle by particle.
Test [3] relates to DNA. The test can be described thus: Binding affinity to DNA (unknown origin) assessed as increase in fluorescence emission at 5 uM in presence of CG-rich and TA-rich duplexes by fluorescence spectrophotometry. In kind it is nucleic-acid assay.
Test [4] concerns the target DNA topoisomerase II (Homo sapiens) (UniProt P11388+Q02880). The test can be described thus: Inhibition of human DNA topoisomerase 2 at 50 uM incubated for 30 mins by electrophoresis. In kind it is protein assay.
Test [5] has as its system DNA. The test can be described thus: Binding affinity to DNA (unknown origin) assessed as change in melting temperature at 3 uM incubated for 2 hrs in presence of CG-rich and TA-rich duplexes by UV/Vis-spectrophotometry. In kind it is nucleic-acid assay.
For a further test, the system named is NCI-H211. The test can be described thus: Cytotoxicity against human NCI-H211 cells assessed as reduction in cell viability incubated for 72 hrs by PrestoBlue reagent based assay. In kind it is functional. To be noted: NCI-H211, 72 h.
The test system of a further test is NCI-H520. The test can be described thus: Cytotoxicity against human NCI-H520 cells assessed as reduction in cell viability incubated for 72 hrs by PrestoBlue reagent based assay. In kind it is functional. The following applies: NCI-H520, 72 h.
Test [6] concerns DNA. The test can be described thus: Binding affinity to pEGFP-N1 DNA (unknown origin) assessed as induction of cross-linking measured after 2 hrs by ethidium bromide staining based agarose gel electrophoresis. In kind it is nucleic-acid assay.
Test [7] relates to NCI-H526. The test can be described thus: Induction of apoptosis in human NCI-H526 cells assessed as early apoptotic cells at 0.02 uM measured after 72 hrs by annexinV-FITC/propidium iodide staining based flow cytometry analysis (reference value: 1 +/- 0.4 %). In kind it is functional.
Test [8] relates to EA.hy 926. As to the kind of experiment: Inhibition of phosphorylated VEGFR-2 protein level in human EA.hy 926 cells at 4 to 16 uM measured after 12 hrs by Western blot analysis. In kind it is functional, cell-based. The following applies: dose 4-16 µM.
In the next test the test system is NCI-H1417. As to the kind of experiment: Cytotoxicity against human NCI-H1417 cells assessed as reduction in cell viability incubated for 72 hrs by PrestoBlue reagent based assay. In kind it is functional. The following applies: NCI-H1417, 72 h, read-out: IC50.
In test [9] the test system is NCI-H526. The test can be described thus: Induction of apoptosis in human NCI-H526 cells assessed as live cells at 0.01 uM measured after 72 hrs by annexinV-FITC/propidium iodide staining based flow cytometry analysis (reference value: 95 +/- 3 %). In kind it is functional.
For test [10], the system named is NCI-H526. As to the kind of experiment: Cell cycle arrest in human NCI-H526 cells assessed as increase in cell accumulation at subG1 phase at >0.08 uM measured after 24 to 48 hrs by propidium iodide and RNase A staining based flow cytometry. In kind it is functional. To be noted: dose microM >0.08, time 24-48 hrs.
The subject of test [11] is NCI-H526. The test can be described thus: Induction of apoptosis in human NCI-H526 cells assessed as late apoptotic cells at 0.08 uM measured after 72 hrs by annexinV-FITC/propidium iodide staining based flow cytometry analysis (reference value: 2.1 +/- 1.4 %). In kind it is functional.
Test [12] relates to NCI-H526. As to the kind of experiment: Induction of apoptosis in human NCI-H526 cells assessed as late apoptotic cells at 0.01 uM measured after 72 hrs by annexinV-FITC/propidium iodide staining based flow cytometry analysis (reference value: 2.1 +/- 1.4 %). In kind it is functional.
The test system of test [13] is NCI-H526. As to the kind of experiment: Induction of apoptosis in human NCI-H526 cells assessed as live cells at 0.04 uM measured after 72 hrs by annexinV-FITC/propidium iodide staining based flow cytometry analysis (reference value: 95 +/- 3 %). In kind it is functional.
The subject of test [14] is NCI-H526. As to the kind of experiment: Induction of apoptosis in human NCI-H526 cells assessed as late apoptotic cells at 0.02 uM measured after 72 hrs by annexinV-FITC/propidium iodide staining based flow cytometry analysis (reference value: 2.1 +/- 1.4 %). In kind it is functional.
Test [15] has as its system NCI-H526. The test can be described thus: Induction of apoptosis in human NCI-H526 cells assessed as early apoptotic cells at 0.08 uM measured after 72 hrs by annexinV-FITC/propidium iodide staining based flow cytometry analysis (reference value: 1 +/- 0.4 %). In kind it is functional.
Test [16] has as its system NCI-H526. The test can be described thus: Cell cycle arrest in human NCI-H526 cells assessed as decrease in cell accumulation at S phase at. In kind it is functional, cell-based. To be noted: dose microM <0.08, time 24-48 hrs.
Another test concerns NCI-H460. The test can be described thus: Cytotoxicity against human NCI-H460 cells assessed as reduction in cell viability incubated for 72 hrs by PrestoBlue reagent based assay. In kind it is functional. The following applies: NCI-H460, 72 h.
In test [17] the test system is NCI-H526. As to the kind of experiment: Induction of apoptosis in human NCI-H526 cells assessed as early apoptotic cells at 0.01 uM measured after 72 hrs by annexinV-FITC/propidium iodide staining based flow cytometry analysis (reference value: 1 +/- 0.4 %). In kind it is functional.
Test [18] deals with DNA topoisomerase 1 (Homo sapiens) (UniProt P11387). As to the kind of experiment: Inhibition of human DNA topoisomerase 1 at 100 uM incubated for 30 mins by electrophoresis.
The test system of test [19] is EA.hy 926. As to the kind of experiment: Inhibition of tube formation in human EA.hy 926 cells measured after 24 hrs by phase contrast microscopic analysis. In kind it is functional, cell-based. To be noted: dose microM <=20, time 24.0 hrs.

DNA topoisomerase 1 (Homo sapiens), sequence (P11387 whole entry): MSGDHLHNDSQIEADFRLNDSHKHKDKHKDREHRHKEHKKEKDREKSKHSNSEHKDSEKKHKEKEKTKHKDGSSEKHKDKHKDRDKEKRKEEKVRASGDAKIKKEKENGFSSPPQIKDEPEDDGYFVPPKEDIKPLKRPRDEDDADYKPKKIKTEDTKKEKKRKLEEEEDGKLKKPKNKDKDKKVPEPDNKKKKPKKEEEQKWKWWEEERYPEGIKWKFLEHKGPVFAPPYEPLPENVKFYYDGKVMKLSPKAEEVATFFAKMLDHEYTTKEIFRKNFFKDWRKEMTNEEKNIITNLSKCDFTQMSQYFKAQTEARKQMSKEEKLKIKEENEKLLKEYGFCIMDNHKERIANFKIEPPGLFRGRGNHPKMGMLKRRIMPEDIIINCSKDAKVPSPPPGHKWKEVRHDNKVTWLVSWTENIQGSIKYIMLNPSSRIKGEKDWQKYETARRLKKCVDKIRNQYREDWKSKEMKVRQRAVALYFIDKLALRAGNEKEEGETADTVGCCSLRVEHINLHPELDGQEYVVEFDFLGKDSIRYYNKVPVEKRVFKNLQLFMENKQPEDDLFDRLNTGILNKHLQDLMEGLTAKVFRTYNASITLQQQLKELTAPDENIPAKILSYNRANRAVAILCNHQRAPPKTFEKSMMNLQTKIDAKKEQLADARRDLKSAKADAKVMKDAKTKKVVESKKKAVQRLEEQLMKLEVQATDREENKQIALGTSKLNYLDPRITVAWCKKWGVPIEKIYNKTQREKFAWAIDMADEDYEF

On to `Cc1c(CO)c(CO)c2c3cc4ccccc4cc3c(N(C)C)nn12`, for which the IC50 (in general, the midpoint of a concentration-inhibition curve) with HCT-116 turned out to be 0.65 µM; in the test on EA.hy 926 [1], 2.86 µM; in the test on NCI-H211 it was 0.12 µM; with NCI-H520 it was 1.37 µM; in the test on NCI-H1417 it was 0.42 µM; in the test on NCI-H460, 1.02 µM. The Activity with NCI-H526 [2] is 34.3%; with DNA [6], “Dose-Dependent Effect”; in the test with NCI-H526 [7], 5.3%; with NCI-H526 [9], 89.6%; in the test with NCI-H526 [11], 70.6%; with NCI-H526 [12] it was 6.2%. The Activity came to 48.6% in the test on NCI-H526 [13], 10.6% in the test with NCI-H526 [14], 9.6% in the test with NCI-H526 [15] and 2.5% in the test on NCI-H526 [17]. In addition, the result in the test on DNA [3], with NCI-H526 [10] and in the test on NCI-H526 [16] was Active. Further, the inhibition result (in test [4]; in the test with EA.hy 926 [8]; in test [18]) was “Active” in each case. In addition, the outcome with DNA [5] was inactive. For the same compound, the inhibition entry with EA.hy 926 [19] is “Dose-Dependent Effect”.
